From PMC7719179, “Small molecule inhibition of Dynamin-dependent endocytosis targets multiple niche signals and impairs leukemia stem cells” (Nature Communications, 2020)
Values joined by “and” are separate entries in the source; they are usually repeats but may differ in a detail not shown here. Equal entries are not always repeated. Where two headings read alike, the source gives them in different places.

Legend:
[1] = system: Hes1 in leukemic DN3a cells from primary Lmo2^Tg T-ALL; experiment: Notch1 (DL1)-induced Hes1 in leukemic DN3a cells from primary Lmo2^Tg T-ALL; type: cell-based, mouse
Procedure: Phosphoflow analysis was performed as previously described. Briefly, 2 × 10^6 cells stained for surface markers were subsequently resuspended into PBS 1× + 4% v/v paraformaldehyde and incubated for 10 min at 4 °C for fixation. Fixed cells were washed twice using PBS 1×, then resuspended in pre-chilled at −20 °C Perm Buffer III (BD Pharmingen) and incubated 30 min at 4 °C for permeabilization. Cells were washed twice using PBS 1× and incubated overnight at 4 °C in PBS 1× + 2% v/v fetal calf serum (FCS) with Cell Signalling purified antibodies (Genesearch Pty Ltd, Arundel QLD, Australia) against pSTAT5 (Tyr694; #9359), phospho-p38 MAPK (Thr180/Tyr182; #4511), phospho-p44/42 (Erk1/2; #9102), phospho-S6 (Ser235/236; #4856) and phospho-Akt (Ser473; #9271) or isotype control. For intracellular HES1 detection, cells stained for surface markers were subsequently fixed and permeabilized using the BD Cytofix/Cytoperm^TM Kit and incubated overnight at 4 °C in PBS 1× + 2% v/v FCS with a purified antibody against HES1 (D6PU; #11988, Cell Signalling) or isotype control. After staining with primary antibodies for phosphoflow or intracellular detection, cells were incubated in permeabilization buffer with donkey Alexa Fluor 488-conjugated anti-rabbit secondary antibody (A-21206, lot #1910751, Molecular Probes, Invitrogen) or goat Alexa Fluor 546-conjugated anti-rabbit secondary antibody (A-11035, lot #1904467, Molecular Probes, Invitrogen) for 1 h on ice, and washed twice in PBS 1×. Fluorescence-activated cell sorting (FACS) analysis was performed using LSRII and LSR Fortessa cytometers, following the gating strategies described in Supplementary Fig. 11. Cell sorting was performed with a FACSAria or BD Influx.
For in vitro NOTCH1 signalling activation assays, cells were seeded on OP9 and OP9-DL1 stromal cell lines as described in the co-culture assays section and incubated overnight with either Dynole 34-2 or Ruxolitinib or DAPT resuspended in DMSO. Harvested cells were washed twice using cold PBS 1× and incubated with 25 ng/mL Rat IgG (Sigma-Aldrich Pty Ltd, Castle Hill NSW, Australia) with a PE-conjugated antibody for detection of NOTCH1 for 1 h on ice, as described in the FACS analysis section. PE-conjugated isotype was used as negative control. Cells were washed twice, fixed and analysed for intracellular HES1 detection by flow cytometry as described in the FACS analysis section. The analysis was performed in triplicate and the MFI observed in thymocytes co-cultured on OP9 cells was reported as 100%.

DN3a thymocytes = experiment: Relative viability and LC50 on DN3a thymocytes of WT, Lmo2^Tg, Lmo2^Tg;STAT5-CA^Tg and Lmo2^Tg;N1-ICD^Tg mice, 48 h; conditions: for viability at 200 µM / viability at 40 µM: Mus musculus, Thymocyte
Procedure: Pre-leukemic and leukemic thymocytes were purified by flow cytometry and co-cultured on GFP-positive OP9 and OP9-DL1 stromal cell lines, as described previously. Thymocytes were co-cultured in reconstituted alpha-MEM medium (#12318, Gibco, Grand Island NY, USA) supplemented with 20% FCS (#12318), HEPES 10 mM (#15630-080), sodium pyruvate 1 mM (#11360-070), β-mercaptoethanol 55 μM (#21985-023), Glutamax 2 mM (#15750-060), 1% Penicillin/Streptomycin (#15140-122), 5 ng/mL rmFLT-3 ligand (#250-31 L, Pepro Tech), 5 ng/mL rmIL-7 (#217-17, Pepro Tech) and 25 ng/mL rmSCF (#250-03, Pepro Tech). After 48 h of co-culture, thymocytes were counted and analysed by FACS. […]
viability of wild-type (WT), Lmo2 Tg, Lmo2Tg;STAT5-CA Tg and Lmo2Tg;N1-ICD Tg DN3a thymocytes […]
normalized to cells treated with vehicle (%DMSO). Mean ± SEM of n=4 biological replicates. b, […]
thymocytes from 6-week old wild-type (WT), Lmo2 Tg, Lmo2Tg;STAT5-CATg and Lmo2Tg ;N1-ICD Tg mice. Mean ± SD of n=4 biological replicates are shown. 2-way ANOVA with Tukey’s correction test; […]
(1 picture or pasted object on this page, not shown here)
*P<0.05, *** P<0.001 compared to WT; #P<0.05, ##P<0.01, ###P<0.001 compared to L mo2Tg. c, Levels of pStat5 (left) after stimulation with IL-7 , as well as Hes1 expression (right) after co-culture on OP9- […]
(0.2 µM), Ruxolitinib (0.2 µM) and DAPT (0.1 µM). Unstimulated cells were used as negative controls (dashed line). Student’s t -test, ** P<0.01, *** P<0.001 compared to unstimulated cells. MFI ± SEM, 1-way ANOVA with Tukey’s correction test; **P<0.01, *** P<0.001 compared to vehicle. d, Clonogenic assay of normal murine hematopoietic stem and progenitor cells (HSPCs) cultured in the presence […]
± SD, Student’s t -test ( n=4) **P<0.01 compared to vehicle. e, Relative viability of wild-type (WT), […]
2 (0.2 µM), Ruxolitinib (0.2 µM) and DAPT (0.1 µM) for 48 hours. Viability was normalized to cells treated with vehicle (%DMSO, which was reported as 100). Mean ± SEM, 2-way ANOVA with Tukey’s correction test, **P<0.01, *** P<0.001 compared to vehicle.

[2] = leukemic DN3a cells of TALL249, Notch1 (DL1) stimulation
[3] = leukemic DN3a cells of TALL257, Notch1 (DL1) stimulation
[4] = leukemic DN3a cells of TALL273, Notch1 (DL1) stimulation
[5] = leukemic DN3a cells of TALL582, Notch1 (DL1) stimulation
[6] = leukemic DN3a cells of TALL588, Notch1 (DL1) stimulation
[7] = leukemic DN3a cells of TALL742, Notch1 (DL1) stimulation
[8] = read-out: Relative % viable cells, Lmo2Tg;STAT5-CATg DN3a thymocytes, dose 0.2 mM (so in the source)

| Compound | Hes1 (MFI) [1, 2] [MFI] | Hes1, FOLD over unstimulated [1, 2] [fold] | Hes1 (MFI) [1, 3] [MFI] | Hes1, FOLD over unstimulated [1, 3] [fold] | Hes1 (MFI) [1, 4] [MFI] | Hes1, FOLD over unstimulated [1, 4] [fold] | Hes1 (MFI) [1, 5] [MFI] | Hes1, FOLD over unstimulated [1, 5] [fold] | Hes1 (MFI) [1, 6] [MFI] | Hes1, FOLD over unstimulated [1, 6] [fold] | Hes1 (MFI) [1, 7] [MFI] | Hes1, FOLD over unstimulated [1, 7] [fold] | viability at 200 µM (DN3a thymocytes; [8]) [%] | Survival (% DMSO) (DN3a thymocytes; Lmo2Tg;STAT5-CATg) | further results |
| --- | --- | --- | --- | --- | --- | --- | --- | --- | --- | --- | --- | --- | --- | --- | --- |
| CCCCCCCCNC(=O)C(C#N)=Cc1cn(CCCN(C)C)c2ccccc12 [Dynole 34-2, 2-Cyano-N-octyl-3-(1-(3-dimethylaminopropyl)-1H-indol-3-yl)-acrylamide] | 7095 | 0.94 | 5988 | 1.05 | 7679 | 0.92 | 5082 | 0.94 | 7974 | 1.46 | 7594 | 0.96 | 37.5 |  | relative resistance conferred by mutations downstream of DDE (STAT5-CA^Tg, N1-ICD^Tg) vs Lmo2^Tg DN3a (DN3a thymocytes; LC50 comparison, 48 h): 3.4 fold; Relative % viable cells (DN3a thymocytes; Lmo2Tg DN3a thymocytes, dose 0.04 mM (so in the source)): 53.38% and 35.26% and 57.31% and 29.03%; Relative % viable cells (DN3a thymocytes; Lmo2Tg DN3a thymocytes, dose 25 mM (so in the source)): 0%; Relative % viable cells (DN3a thymocytes; Lmo2Tg;Notch1Tg DN3a thymocytes, dose 1 mM (so in the source)): 27.05% and 30.53% and 26.36%; Relative % viable cells (DN3a thymocytes; Lmo2Tg;STAT5-CATg DN3a thymocytes, dose 0.04 mM (so in the source)): 60% and 110.87% and 62.94% and 65.19%; Relative % viable cells (DN3a thymocytes; Lmo2Tg;STAT5-CATg DN3a thymocytes, dose 0.2 mM (so in the source)): 40.03% and 50.05% and 55.36%; Relative % viable cells (DN3a thymocytes; Lmo2Tg;STAT5-CATg DN3a thymocytes, dose 25 mM (so in the source)): 0% and 5.23% and 8.65%; Relative % viable cells (DN3a thymocytes; WT DN3a thymocytes, dose 0.04 mM (so in the source)): 81.18% and 50% and 68.95% and 71.06% and 67.17%; Relative % viable cells (DN3a thymocytes; WT DN3a thymocytes, dose 5 mM (so in the source)): 5.59% and 1.77% and 8.44% and 6.33% and 6.38%; Relative % viable cells (DN3a thymocytes; WT DN3a thymocytes, dose 25 mM (so in the source)): 0% and 8.83%; sensitivity of wild-type (WT) DN3a thymocytes relative to pre-LSCs (DN3a thymocytes; WT vs Lmo2^Tg DN3a, result in words): fivefold less sensitive |
| N#CC[C@H](C1CCCC1)n1cc(-c2ncnc3[nH]ccc23)cn1 [Ruxolitinib] | 8215 | 1.09 | 8036 | 1.41 | 8741 | 1.04 | 6452 | 1.20 | 8104 | 1.48 | 10321 | 1.31 | 69.3 | 69.32 % DMSO and 78.95 % DMSO and 73.54 % DMSO | fold resistance of Lmo2^Tg;STAT5-CA^Tg DN3a thymocytes vs Lmo2^Tg DN3a cells (DN3a thymocytes; LC50 comparison, 48 h): 5.3 fold; viability at 40 µM (DN3a thymocytes; read-out: Relative % viable cells, Lmo2Tg DN3a thymocytes, dose 0.04 mM (so in the source)): 88.8%; viability at 40 µM (DN3a thymocytes; read-out: Relative % viable cells, Lmo2Tg;STAT5-CATg DN3a thymocytes, dose 0.04 mM (so in the source)): 95.5%; Survival (% DMSO) (DN3a thymocytes; WT): 39.65 % DMSO and 53.08 % DMSO and 37.17 % DMSO |
| C[C@H](NC(=O)Cc1cc(F)cc(F)c1)C(=O)N[C@H](C(=O)OC(C)(C)C)c1ccccc1 [DAPT, N-[N-(3,5-Difluorophenacetyl)-L-alanyl]-S-phenylglycine t-butyl ester] | 6973 | 0.92 | 4801 | 0.84 | 7737 | 0.92 | 5294 | 0.98 | 6134 | 1.12 | 7313 | 0.93 |  | 52.45 % DMSO and 51.11 % DMSO and 34.78 % DMSO | fold resistance of Lmo2^Tg;N1-ICD^Tg DN3a cells vs Lmo2^Tg thymocytes (DN3a thymocytes; LC50 comparison, 48 h): 9 fold; Survival (% DMSO) (DN3a thymocytes; Lmo2Tg): 17.19 % DMSO and 25.07 % DMSO and 13.99 % DMSO; Relative % viable cells (DN3a thymocytes; Lmo2Tg DN3a thymocytes, dose 0.02 mM (so in the source)): 79.43% and 55.29% and 67.53%; Relative % viable cells (DN3a thymocytes; Lmo2Tg DN3a thymocytes, dose 0.1 mM (so in the source)): 25.07% and 13.99% and 17.19%; Relative % viable cells (DN3a thymocytes; Lmo2Tg DN3a thymocytes, dose 0.5 mM (so in the source)): 5.42% and 10.32% and 11.23%; Relative % viable cells (DN3a thymocytes; Lmo2Tg DN3a thymocytes, dose 2.5 mM (so in the source)): 5.22% and 9.91% and 8.68%; Relative % viable cells (DN3a thymocytes; Lmo2Tg DN3a thymocytes, dose 12.5 mM (so in the source)): 5.76% and 9.27% and 6.48%; Survival (% DMSO) (DN3a thymocytes; Lmo2Tg;Notch1Tg): 55.35 % DMSO and 68.13 % DMSO and 61.12 % DMSO and 65.99 % DMSO; Relative % viable cells (DN3a thymocytes; Lmo2Tg;Notch1Tg DN3a thymocytes, dose 0.02 mM (so in the source)): 68.73% and 83.56% and 62.24% and 87.12%; Relative % viable cells (DN3a thymocytes; Lmo2Tg;Notch1Tg DN3a thymocytes, dose 0.1 mM (so in the source)): 55.35% and 68.13% and 61.12% and 65.99%; Relative % viable cells (DN3a thymocytes; Lmo2Tg;Notch1Tg DN3a thymocytes, dose 0.5 mM (so in the source)): 52.22% and 56.33% and 58%; Relative % viable cells (DN3a thymocytes; Lmo2Tg;STAT5-CATg DN3a thymocytes, dose 0.02 mM (so in the source)): 76.45% and 84.74% and 59.85%; Relative % viable cells (DN3a thymocytes; Lmo2Tg;STAT5-CATg DN3a thymocytes, dose 0.1 mM (so in the source)): 52.45% and 51.11% and 34.78%; Relative % viable cells (DN3a thymocytes; Lmo2Tg;STAT5-CATg DN3a thymocytes, dose 0.5 mM (so in the source)): 38.67% and 42.63% and 42.16%; Relative % viable cells (DN3a thymocytes; Lmo2Tg;STAT5-CATg DN3a thymocytes, dose 2.5 mM (so in the source)): 27.14% and 38.85% and 21.86%; Relative % viable cells (DN3a thymocytes; Lmo2Tg;STAT5-CATg DN3a thymocytes, dose 12.5 mM (so in the source)): 19.43% and 16.58% and 21.18% |
